Data: patent publication US10980889B1 (Revolution Medicines, Inc., priority 2018, dated 2021)

Columns and labels:
P-P70S6K (T389) = experiment: Cell based AlphaLISA assay, inhibition of P-P70S6K (T389) in MDA-MB-468 cells (mTORC1 substrate); settings: AlphaLisa, two to four hours at 37° C.; for IC50: Homo sapiens, 4 h, read-out: pIC50 for Inhibition of mTORC1 and mTORC2 Substrate Phosphorylation p-P70S6K-(T389) (converted)
Method in brief: (§1)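 In MDA-MB-468 cells, phosphorylation of 4EBP1 (Thr37/46), P70S6K (Thr389) and AKT (Ser473) was measured after incubation with inhibitor by AlphaLISA SureFire Ultra on cell lysates, in duplicate. IC50 values came from control-normalized concentration-response regression.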

P-4E-BP1 (T37/46) = experiment: Cell based AlphaLISA assay, inhibition of P-4E-BP1 (T37/46) in MDA-MB-468 cells (mTORC1 substrate); settings: AlphaLisa, two to four hours at 37° C.; for IC50: Homo sapiens, 4 h, read-out: pIC50 for Inhibition of mTORC1 and mTORC2 Substrate Phosphorylation P-4E-BP1-(T37/46) (converted)
Method in brief: as §1

P-Akt (S473) = experiment: Cell based AlphaLISA assay, inhibition of P-Akt (S473) in MDA-MB-468 cells (mTORC2 substrate); settings: AlphaLisa, two to four hours at 37° C.; for IC50: Homo sapiens, 4 h, read-out: pIC50 for Inhibition of mTORC1 and mTORC2 Substrate Phosphorylation p-AKT1/2/3-(S473) (converted)
Method in brief: as §1

Row | Structure (SMILES) | IC50 (P-P70S6K (T389)) | IC50 (P-4E-BP1 (T37/46)) | IC50 (P-Akt (S473)) | pIC50 for Inhibition of mTORC1 and mTORC2 Substrate Phosphorylation p-P70S6K-(T389) (P-P70S6K (T389)) | pIC50 for Inhibition of mTORC1 and mTORC2 Substrate Phosphorylation P-4E-BP1-(T37/46) (P-4E-BP1 (T37/46)) | pIC50 for Inhibition of mTORC1 and mTORC2 Substrate Phosphorylation p-AKT1/2/3-(S473) (P-Akt (S473))
1 | CO[C@H]1C[C@@H]2CC[C@@H](C)[C@@](O)(O2)C(=O)C(=O)N2CCCC[C@H]2C(=O)O[C@H]([C@H](C)C[C@@H]2CC[C@@H](OC(=O)N3CCC(N)(C(=O)NCCOCCOCCOCCOCCOCCOCCC(=O)N4CCc5cc(Cn6nc(-c7ccc8oc(N)nc8c7)c7c(N)ncnc76)ccc5C4)CC3)[C@H](OC)C2)C[C@@H](O)[C@H](C)/C=C(\C)[C@@H](O)[C@@H](OC)C(=O)[C@H](C)C[C@H](C)/C=C/C=C/C=C/1C [Example 101] | < 1 nM | < 3.16 nM | 3.16 to 31.6 nM | – | – | –
2 | CO[C@H]1C[C@@H]2CC[C@@H](C)[C@@](O)(O2)C(=O)C(=O)N2CCCC[C@H]2C(=O)O[C@H]([C@H](C)C[C@@H]2CC[C@@H](OC(=O)NCc3cnc(N4CCN(C(=O)CN(C)CC(=O)NCCOCCOCCC(=O)N5CCc6cc(Cn7nc(-c8ccc9oc(N)nc9c8)c8c(N)ncnc87)ccc6C5)CC4)nc3)[C@H](OC)C2)C[C@@H](OC)[C@H](C)/C=C(\C)[C@@H](O)[C@@H](OC)C(=O)[C@H](C)C[C@H](C)/C=C/C=C/C=C/1C [Example 103] | – | – | – | +++ (≥9) | − (<6) | − (<6)
3 | CO[C@H]1C[C@@H]2CC[C@@H](C)[C@@](O)(O2)C(=O)C(=O)N2CCCC[C@H]2C(=O)O[C@H]([C@H](C)C[C@@H]2CC[C@@H](OC(=O)NCc3cnc(N4CCN(c5ncc(C(=O)NCCOCCOCCOCCOCCC(=O)N6CCc7cc(Cn8nc(-c9ccc%10oc(N)nc%10c9)c9c(N)ncnc98)ccc7C6)cn5)[C@@H](C(=O)O)C4)nc3)[C@H](OC)C2)CC(=O)[C@H](C)/C=C(\C)[C@@H](O)[C@@H](OC)C(=O)[C@H](C)C[C@H](C)/C=C/C=C/C=C/1C [Example 105] | – | – | – | +++ (≥9) | ++ (8.5 > pIC50 ≥ 7.5) | − (<6)
4 | CO[C@H]1C[C@@H]2CC[C@@H](C)[C@@](O)(O2)C(=O)C(=O)N2CCCC[C@H]2C(=O)O[C@H]([C@H](C)C[C@@H]2CC[C@@H](OC(=O)NCc3cnc(N4CCN(c5ncc(C(=O)N(C)CCOCCOCCOCCOCCC(=O)N6CCc7cc(Cn8nc(-c9ccc%10oc(N)nc%10c9)c9c(N)ncnc98)ccc7C6)c(N)n5)CC4)nc3)[C@H](OC)C2)C[C@@H](OC)[C@H](C)/C=C(\C)[C@@H](O)[C@@H](OC)C(=O)[C@H](C)C[C@H](C)/C=C/C=C/C=C/1C [Example 107] | – | – | – | +++ (≥9) | − (<6) | − (<6)
5 | CO[C@H]1C[C@@H]2CC[C@@H](C)[C@@](O)(O2)C(=O)C(=O)N2CCCC[C@H]2C(=O)O[C@H]([C@H](C)C[C@@H]2CC[C@@H](OC(=O)NCc3cnc(N4CCN(c5ncc(C(=O)NCCOCCOCCOCCOCCC(=O)N6CCc7cc(Cn8nc(-c9cnc%10[nH]ccc%10c9)c9c(N)ncnc98)ccc7C6)c(N)n5)CC4)nc3)[C@H](OC)C2)CC(=O)[C@H](C)/C=C(\C)[C@@H](O)[C@@H](OC)C(=O)[C@H](C)C[C@H](C)/C=C/C=C/C=C/1C [Example 108] | – | – | – | ++ (9 > pIC50 ≥ 8) | − (<6) | − (<6)
6 | CO[C@H]1C[C@@H]2CC[C@@H](C)[C@@](O)(O2)C(=O)C(=O)N2CCCC[C@H]2C(=O)O[C@H]([C@H](C)C[C@@H]2CC[C@@H](OC(=O)NCc3cnc(N4CCN(C(=O)CCOCCN5CCN(c6ncc(C(=O)N7CCc8cc(Cn9nc(-c%10ccc%11oc(N)nc%11c%10)c%10c(N)ncnc%109)ccc8C7)cn6)CC5)CC4)nc3)[C@H](OC)C2)CC(=O)[C@H](C)/C=C(\C)[C@@H](O)[C@@H](OC)C(=O)[C@H](C)C[C@H](C)/C=C/C=C/C=C/1C [Example 109] | 10 to 1000 nM | > 1000 nM | > 1000 nM | – | – | –
7 | CO[C@H]1C[C@@H]2CC[C@@H](C)[C@@](O)(O2)C(=O)C(=O)N2CCCC[C@H]2C(=O)O[C@H]([C@H](C)C[C@@H]2CC[C@@H](OC(=O)NCc3cnc(N4CCN(C(=O)CCOCCN5CCN(c6ncc(C(=O)N7CCc8cc(Cn9nc(-c%10cnc%11[nH]ccc%11c%10)c%10c(N)ncnc%109)ccc8C7)cn6)CC5)CC4)nc3)[C@H](OC)C2)CC(=O)[C@H](C)/C=C(\C)[C@@H](O)[C@@H](OC)C(=O)[C@H](C)C[C@H](C)/C=C/C=C/C=C/1C [Example 110] | 1 to 10 nM | > 1000 nM | > 1000 nM | – | – | –
8 | CO[C@H]1C[C@@H]2CC[C@@H](C)[C@@](O)(O2)C(=O)C(=O)N2CCCC[C@H]2C(=O)O[C@H]([C@H](C)C[C@@H]2CC[C@@H](OC(=O)NCc3cnc(N4CCN(c5ncc(C(=O)NCCOCCC(=O)N6CCN(c7ncc(C(=O)NCCCCn8nc(-c9ccc%10oc(N)nc%10c9)c9c(N)ncnc98)cn7)CC6)cn5)CC4)nc3)[C@H](OC)C2)CC(=O)[C@H](C)/C=C(\C)[C@@H](O)[C@@H](OC)C(=O)[C@H](C)C[C@H](C)/C=C/C=C/C=C/1C [Example 111] | < 1 nM | < 3.16 nM | > 1000 nM | – | – | –
9 | CO[C@H]1C[C@@H]2CC[C@@H](C)[C@@](O)(O2)C(=O)C(=O)N2CCCC[C@H]2C(=O)O[C@H]([C@H](C)C[C@@H]2CC[C@@H](OC(=O)NCc3cnc(N4CCN(C(=O)CCOCCN5CCN(c6ncc(C(=O)NCCCCn7nc(-c8ccc9oc(N)nc9c8)c8c(N)ncnc87)cn6)CC5)CC4)nc3)[C@H](OC)C2)CC(=O)[C@H](C)/C=C(\C)[C@@H](O)[C@@H](OC)C(=O)[C@H](C)C[C@H](C)/C=C/C=C/C=C/1C [Example 112] | < 1 nM | > 1000 nM | > 1000 nM | – | – | –
10 | CO[C@H]1C[C@@H]2CC[C@@H](C)[C@@](O)(O2)C(=O)C(=O)N2CCCC[C@H]2C(=O)O[C@H]([C@H](C)C[C@@H]2CC[C@@H](OC(=O)NCc3cnc(N4CCN(C(=O)CCOCCN5CCN(c6ncc(C(=O)N7CCc8cc(Cn9nc(-c%10ccc%11oc(N)nc%11c%10)c%10c(N)ncnc%109)ccc8C7)cn6)CC5)CC4)nc3)[C@H](OC)C2)C[C@@H](O)[C@H](C)/C=C(\C)[C@@H](O)[C@@H](OC)C(=O)[C@H](C)C[C@H](C)/C=C/C=C/C=C/1C [Example 113] | < 1 nM | < 3.16 nM | 3.16 to 31.6 nM | – | – | –
11 | CO[C@H]1C[C@@H]2CC[C@@H](C)[C@@](O)(O2)C(=O)C(=O)N2CCCC[C@H]2C(=O)O[C@H]([C@H](C)C[C@@H]2CC[C@@H](OC(=O)NCc3cnc(N4CCN(C(=O)CCOCCN5CCN(c6ncc(C(=O)N7CCc8cc(Cn9nc(-c%10ccc%11oc(N)nc%11c%10)c%10c(N)ncnc%109)ccc8C7)cn6)CC5)CC4)nc3)[C@H](OC)C2)C[C@@H](OC)[C@H](C)/C=C(\C)[C@@H](O)[C@@H](OC)C(=O)[C@H](C)C[C@H](C)/C=C/C=C/C=C/1C [Example 114] | < 1 nM | < 3.16 nM | > 1000 nM | – | – | –
12 | CO[C@H]1C[C@@H]2CC[C@@H](C)[C@@](O)(O2)C(=O)C(=O)N2CCCC[C@H]2C(=O)O[C@H]([C@H](C)C[C@@H]2CC[C@@H](OC(=O)NCc3cnc(N4CCN(C(=O)CCOCCN5CCN(C(=O)CCC(=O)NCCCCn6nc(-c7cnc8[nH]ccc8c7)c7c(N)ncnc76)CC5)CC4)nc3)[C@H](OC)C2)CC(=O)[C@H](C)/C=C(\C)[C@@H](O)[C@@H](OC)C(=O)[C@H](C)C[C@H](C)/C=C/C=C/C=C/1C [Example 116] | < 1 nM | < 3.16 nM | > 1000 nM | – | – | –
